In US10654853B2, “Spiro-condensed pyrrolidine derivatives as deubiquitylating enzymes (DUB) inhibitors” (MISSION THERAPEUTICS LIMITED, priority 2016, dated 2020) one finds IC50 data, which are given here for 28 compounds.

The assay has as its target Cezanne 1 (Homo sapiens (Human), UniProt Q6GQQ9). Put plainly: Cezanne 1 biochemical IC50 assay (fluorescence polarisation, TAMRA labelled peptide linked to ubiquitin). To be noted: Cezanne 1 biochemical IC50 assay; 30 min pre-incubation, read after 2 hr at room temperature; read-out: IC50 range. As to the method:
The Cezanne 1 construct was PCR amplified and cloned into a pFLAG-CMV-6c vector (Sigma-Aldrich) with an N-terminal FLAG tag. HEK293T cells were transfected with FLAG-Cezanne 1 using TransIT-LT1 transfection reagent (Mirus) according to the manufacturer's instructions. Cells were harvested 48 hours after transfection. […] The resin was washed two times with low salt buffer and one time with high salt buffer (20 mM Tris, pH 7.5, 500 mM NaCl, 0.5 mM EDTA, 5 mM beta-mercaptoethanol, protease inhibitors (complete mini, Roche) and phosphatase inhibitors (PhosSTOP mini, Roche). To elute the bound Cezanne 1, elution buffer (10 mM Tris, pH 7.5, 150 mM NaCl, 0.5 mM EDTA, 10% glycerol, 0.5% NP40, 5 mM beta-mercaptoethanol, 0.15 mg/ml 3× FLAG peptide (Sigma-Aldrich)) was added to the resin and incubated at 4° C. for 2.5 hours while rotating. The resin was centrifuged at 4000 rpm for 30 seconds, and the supernatant containing purified FLAG-Cezanne 1 was removed and stored at −80° C. […] Dilution plates were prepared at 21 times the final concentration (2100 μM for a final concentration of 100 μM) in 50% DMSO in a 96-well polypropylene V-bottom plate (Greiner #651201). […] Reactions were performed in duplicate in black 384 well plates (small volume, Greiner 784076) in a final reaction volume of 21 μl. Either 1 μl of 50% DMSO or diluted compound was added to the plate. Cezanne 1 was diluted in reaction buffer (40 mM Tris, pH 7.5, 0.005% Tween 20, 0.5 mg/ml BSA, 5 mM—beta-mercaptoethanol) to the equivalent of 0.005 μl/well and 10 μl of diluted Cezanne 1 was added to the compound. Enzyme and compound were incubated for 30 min at room temp. Reactions were initiated by the addition of 50 nM of TAMRA labelled peptide linked to ubiquitin via an iso-peptide bond as fluorescence polarisation substrate. Reactions were read immediately after addition of substrate and following a 2 hr incubation at room temperature. Readings were performed on a Pherastar Plus (BMG Labtech). λ Excitation 540 nm; λ Emission 590 nm.
For orientation: Fluorescence polarisation rises when a labelled molecule tumbles more slowly, as on binding a larger partner.

Sequence of Cezanne 1 (Q6GQQ9 whole entry): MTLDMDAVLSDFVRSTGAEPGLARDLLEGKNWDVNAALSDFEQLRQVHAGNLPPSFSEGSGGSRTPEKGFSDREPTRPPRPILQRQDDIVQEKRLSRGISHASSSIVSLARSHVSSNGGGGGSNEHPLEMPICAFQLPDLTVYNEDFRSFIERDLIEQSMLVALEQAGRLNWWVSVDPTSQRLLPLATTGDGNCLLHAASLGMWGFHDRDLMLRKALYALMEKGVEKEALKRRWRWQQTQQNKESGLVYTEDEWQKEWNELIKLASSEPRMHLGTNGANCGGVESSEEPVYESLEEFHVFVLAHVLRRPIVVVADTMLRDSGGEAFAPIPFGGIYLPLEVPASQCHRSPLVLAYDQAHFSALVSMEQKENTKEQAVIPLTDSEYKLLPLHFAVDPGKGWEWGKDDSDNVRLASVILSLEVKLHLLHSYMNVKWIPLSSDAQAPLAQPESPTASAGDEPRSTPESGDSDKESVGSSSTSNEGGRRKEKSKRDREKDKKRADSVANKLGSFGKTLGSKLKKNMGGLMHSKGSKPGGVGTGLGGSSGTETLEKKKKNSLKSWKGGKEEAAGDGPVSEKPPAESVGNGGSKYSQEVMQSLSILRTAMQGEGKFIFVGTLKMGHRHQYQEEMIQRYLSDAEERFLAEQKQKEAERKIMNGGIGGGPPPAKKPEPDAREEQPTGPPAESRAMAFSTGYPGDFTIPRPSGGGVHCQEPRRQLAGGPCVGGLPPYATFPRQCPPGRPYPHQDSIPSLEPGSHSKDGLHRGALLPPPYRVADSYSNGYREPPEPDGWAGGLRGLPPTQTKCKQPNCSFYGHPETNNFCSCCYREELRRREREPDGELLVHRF

As for `N#CN1CCC2(Cc3ccc(-c4ccc(C(=O)N5CCOCC5)cc4)cc3NC2=O)C1` (stereo not shown) [Example 37, 7′-(4-(Morpholine-4-carbonyl)phenyl)-2′-oxo-1′,4′-dihydro-2′H-spiro[pyrrolidine-3,3′-quinoline]-1-carbonitrile], the IC50 lay within 1000 to 10000 nM.

On to `N#CN1CCC2(Cc3ccc(-c4cccc(S(=O)(=O)N5CCOCC5)c4)cc3NC2=O)C1` (stereo not shown) [Example 38, 7′-(3-(Morpholinosulfonyl)phenyl)-2′-oxo-1′,4′-dihydro-2′H-spiro[pyrrolidine-3,3′-quinoline]-1-carbonitrile], for which the IC50 was in the range of 1000 to 10000 nM.

With `Cn1cc(-c2ccc3c(c2)NC(=O)C2(CCN(C#N)C2)C3)ccc1=O` (stereo not shown) [Example 39, 7′-(1-Methyl-6-oxo-1,6-dihydropyridin-3-yl)-2′-oxo-1′,4′-dihydro-2′H-spiro[pyrrolidine-3,3′-quinoline]-1-carbonitrile], the IC50 lay within 1000 to 10000 nM.

Regarding `Cc1nc2cc(-c3ccc4c(c3)NC(=O)C3(CCN(C#N)C3)C4)ccc2s1` (stereo not shown) [Example 40, 7′-(2-Methylbenzo[d]thiazol-5-yl)-2′-oxo-1′,4′-dihydro-2′H-spiro[pyrrolidine-3,3′-quinoline]-1-carbonitrile], the IC50 fell in the range of 100 to 1000 nM.

On to `N#CN1CCC2(Cc3cc(-c4ccccc4)ccc3NC2=O)C1` (stereo not shown) [Example 41, 2′-Oxo-6′-phenyl-1′,4′-dehydro-2′H-spiro[pyrrolidine-3,3′-quinoline]-1-carbonitrile], for which the IC50 was in the range of 100 to 1000 nM.

Regarding `N#Cc1ccc(-c2ccc3c(c2)CC2(CCN(C#N)C2)C(=O)N3)cc1` (stereo not shown) [Example 42, 6′-(4-Cyanophenyl)-2′-oxo-1′,4′-dihydro-2′H-spiro[pyrrolidine-3,3′-quinoline]-1-carbonitrile], the IC50 lay within 100 to 1000 nM.

Take `N#Cc1cccc(-c2ccc3c(c2)CC2(CCN(C#N)C2)C(=O)N3)c1` (stereo not shown) [Example 43, 6′-(3-Cyanophenyl)-2′-oxo-1′,4′-dihydro-2′H-spiro[pyrrolidine-3,3′-quinoline]-1-carbonitrile]: the IC50 is 100 to 1000 nM.

Take `N#CN1CCC2(Cc3cc(-c4ccc(F)cc4)ccc3NC2=O)C1` (stereo not shown) [Example 44, 6′-(4-Fluorophenyl)-2′-oxo-1′,4′-dihydro-2′H-spiro[pyrrolidine-3,3′-quinoline]-1-carbonitrile]: the IC50 lay in the range of 100 to 1000 nM.

For the compound `N#CN1CCC2(Cc3cc(-c4cccc(F)c4)ccc3NC2=O)C1` (stereo not shown) [Example 45, 6′-(3-Fluorophenyl)-2′-oxo-1′,4′-dihydro-2′H-spiro[pyrrolidine-3,3′-quinoline]-1-carbonitrile], the IC50 lay in the range of 100 to 1000 nM.

For `CN(C)C(=O)c1ccc2c(c1)NC(=O)C1(CCN(C#N)C1)C2` (stereo not shown) [Example 46, 1-Cyano-N,N-dimethyl-2′-oxo-1′,4′-dihydro-2′H-spiro[pyrrolidine-3,3′-quinoline]-7′-carboxamide], the IC50 was 1000 to 10000 nM.

In the case of `CNC(=O)c1ccc2c(c1)NC(=O)C1(CCN(C#N)C1)C2` (stereo not shown) [Example 47, 1-Cyano-N-methyl-2′-oxo-1′,4′-dihydro-2′H-spiro[pyrrolidine-3,3′-quinoline]-7′-carboxamide], the IC50 is 1000 to 10000 nM.

As to `N#CN1CCC2(C1)Oc1ncccc1NC2=O` (stereo not shown) [Example 48, 2-Oxo-1,2-dihydrospiro[pyrido[2,3-b][1,4]oxazine-3,3′-pyrrolidine]-1′-carbonitrile], the IC50 is 100 to 1000 nM.

Take `N#CN1CCC2(C1)Oc1ncc(-c3ccccc3)cc1NC2=O` (stereo not shown) [Example 49, 2-Oxo-7-phenyl-1,2-dihydrospiro[pyrido[2,3-b][1,4]oxazine-3,3′-pyrrolidine]-1′-carbonitrile]: the half-maximal inhibitory concentration (IC50) lay in the range of 100 to 1000 nM.

As for `N#Cc1ccc(-c2cnc3c(c2)NC(=O)C2(CCN(C#N)C2)O3)cc1` (stereo not shown) [Example 50, 7-(4-Cyanophenyl)-2-oxo-1,2-dihydrospiro[pyrido[2,3-b][1,4]oxazine-3,3′-pyrrolidine]-1′-carbonitrile], the IC50 fell in the range of 100 to 1000 nM.

For the compound `N#Cc1cccc(-c2cnc3c(c2)NC(=O)C2(CCN(C#N)C2)O3)c1` (stereo not shown) [Example 51, 7-(3-Cyanophenyl)-2-oxo-1,2-dihydrospiro[pyrido[2,3-b][1,4]oxazine-3,3′-pyrrolidine]-1′-carbonitrile], the IC50 was 100 to 1000 nM.

As for `N#CN1CCC2(C1)Oc1ncc(-c3ccc(F)cc3)cc1NC2=O` (stereo not shown) [Example 52, 7-(4-Fluorophenyl)-2-oxo-1,2-dihydrospiro[pyrido[2,3-b][1,4]oxazine-3,3′-pyrrolidine]-1′-carbonitrile], the IC50 is 100 to 1000 nM.

For the compound `N#CN1CCC2(C1)Oc1ncc(-c3cccc(F)c3)cc1NC2=O` (stereo not shown) [Example 53, 7-(3-Fluorophenyl)-2-oxo-1,2-dihydrospiro[pyrido[2,3-b][1,4]oxazine-3,3′-pyrrolidine]-1′-carbonitrile], the IC50 is 100 to 1000 nM.

`N#CN1CCC2(C1)Oc1nc(-c3ccccc3)ccc1NC2=O` (stereo not shown) [Example 54, 2-Oxo-6-phenyl-1,2-dihydrospiro[pyrido[2,3-b][1,4]oxazine-3,3′-pyrrolidine]-1′-carbonitrile]: the IC50 fell in the range of 100 to 1000 nM.

In the case of `N#CN1CCC2(C1)Nc1ncccc1NC2=O` (stereo not shown) [Example 55, 2-Oxo-1,4-dihydro-2H-spiro[pyrido[2,3-b]pyrazine-3,3′-pyrrolidine]-1′-carbonitrile], the 50% inhibitory concentration (IC50) is 1000 to 10000 nM.

`N#CN1CCC2(C1)Nc1nc(C(F)(F)F)ccc1NC2=O` (stereo not shown) [Example 56, 2-Oxo-6-(trifluoromethyl)-1,4-dihydro-2H-spiro[pyrido[2,3-b]pyrazine-3,3′-pyrrolidine]-1′-carbonitrile]: the IC50 is 1000 to 10000 nM.

Regarding `N#CN1CCC2(C1)Nc1ncc(-c3ccccc3)cc1NC2=O` (stereo not shown) [Example 57, 2-Oxo-7-phenyl-1,4-dihydro-2H-spiro[pyrido[2,3-b]pyrazine-3,3′-pyrrolidine]-1′-carbonitrile], the concentration for half-maximal inhibition (IC50) is 100 to 1000 nM.

`N#Cc1ccc(-c2cnc3c(c2)NC(=O)C2(CCN(C#N)C2)N3)cc1` (stereo not shown) [Example 58, 7-(4-Cyanophenyl)-2-oxo-1,4-dihydro-2H-spiro[pyrido[2,3-b]pyrazine-3,3′-pyrrolidine]-1′-carbonitrile]: the IC50 lay in the range of 100 to 1000 nM.

On to `N#CN1CCC2(C1)Nc1ncc(-c3ccc(F)cc3)cc1NC2=O` (stereo not shown) [Example 59, 7-(4-Fluorophenyl)-2-oxo-1,4-dihydro-2H-spiro[pyrido[2,3-b]pyrazine-3,3′-pyrrolidine]-1′-carbonitrile], for which the IC50 was in the range of 100 to 1000 nM.

For the compound `N#CN1CCC2(C1)Nc1ncc(-c3cccc(F)c3)cc1NC2=O` (stereo not shown) [Example 60, 7-(3-Fluorophenyl)-2-oxo-1,4-dihydro-2H-spiro[pyrido[2,3-b]pyrazine-3,3′-pyrrolidine]-1′-carbonitrile], the IC50 was in the range of 100 to 1000 nM.

Take `N#CN1CCC2(C1)Nc1cccnc1NC2=O` (stereo not shown) [Example 61, 3-Oxo-3,4-dihydro-1H-spiro[pyrido[2,3-b]pyrazine-2,3′-pyrrolidine]-1′-carbonitrile]: the IC50 lay within 1000 to 10000 nM.

Consider `N#CN1CCC2(CCNC2=O)C1` (stereo not shown) [Example 62, 6-Oxo-2,7-diazaspiro[4.4]nonane-2-carbonitrile], for which the IC50 was over 10000 nM.

Take `N#CN1CC[C@]2(CCNC2=O)C1` [Example 63, (R)-6-Oxo-2,7-diazaspiro[4.4]nonane-2-carbonitrile]: the concentration for half-maximal inhibition (IC50) fell in the range of 1000 to 10000 nM.

Turning to `N#CN1CC[C@@]2(C1)Oc1ncc(-c3ccccc3)cc1NC2=O` [Example 64, (S)-2-Oxo-7-phenyl-1,2-dihydrospiro[pyrido[2,3-b][1,4]oxazine-3,3′-pyrrolidine]-1′-carbonitrile], the IC50 fell in the range of 100 to 1000 nM.

By IC50 is commonly meant the concentration that inhibits the measured activity by half.
